Data taken from patent publication US20250382298A1, “NITROGEN-CONTAINING COMPOUND AND USE THEREOF” (SUZHOU GENHOUSE BIO CO., LTD., priority 2022, published 2025).
Where two headings read alike, the source gives them in different places.

Tests used:
[1] = tested on: OVCAR3 cells; test: Detection of OVCAR3 cell proliferation activity by CTG method; assay type: cell-based; conditions: Homo sapiens, OVCAR-3, 168 h, CellTiter-Glo, 7 days
Text: (§1) This assay can be used to examine the potency of compounds in inhibiting the proliferation of tumor cells (OVCAR3, HT-29, BT-549, HCT-116). A lower IC50 value indicates high potency of the compound as a KIF18A inhibitor in the following assay setup,
1640 medium; fetal bovine serum; penicillin/streptomycin antibiotics purchased from Wisent; CellTiter-Glo (chemiluminescence detection reagent for cell viability) reagent purchased from Promega; OVCAR3 cell line purchased from Nanjing Cobioer Biosciences Co., Ltd.; Nivo multimode microplate reader (PerkinElmer),
OVCAR3 cells were seeded into a white 96-well plate, with 80 μL of cell suspension containing 2000 OVCAR3 cells added to each well. The cell plate was incubated in a CO2 incubator overnight.
A test compound was 5-fold diluted to the 8th concentration (i.e., from 2 mM to […]) using a multichannel pipette, with duplicate wells set up. To an intermediate plate was added 78 μL of medium, and the serially diluted compound was transferred to the corresponding wells of the intermediate plate at 2 μL/well. The mixture was mixed well and then transferred to the cell plate at 20 μL/well. The concentration of the compound transferred to the cell plate ranged from 10 μM to 0.026 nM. The cell plate was incubated in a CO2 incubator for 7 days. Another cell plate was prepared and read for signal values on the day of compound addition, and these values were used as the maximum values (the Max value in the equation below) in data analysis. To this cell plate was added the chemiluminescence detection reagent for cell viability at 25 μL/well, and the luminescence signals were stabilized by incubation at room temperature for 10 min. Readings were taken using the multimode microplate reader.
To the cell plate was added the chemiluminescence detection reagent for cell viability at 25 μL/well, and the luminescence signals were stabilized by incubation at room temperature for 10 mm. Readings were taken using the multimode microplate reader, […]

[2] = tested on: HT-29 cells; test: Mitotic index analysis, pH3 expression in HT-29 cells; assay type: cell-based, human; conditions: Homo sapiens, 24 h treatment
Description: (§2) HCT-116 and HT-29 cells at the logarithmic growth phase were taken, digested with a cell lysis buffer (trypsin), centrifuged, counted, and seeded into a 96-well plate at an appropriate cell density (20000 cells/well), with 100 μL per well. The surrounding wells were filled with an appropriate amount of PBS to prevent water evaporation. The next day, the cells were treated with the compounds at different concentrations (with a starting concentration of 10 μM, 3-fold diluted to obtain 9 concentration gradients). After 24 h, the medium was aspirated, and the cells were washed twice with 100 μL of PBS. The cells were then fixed with 4% paraformaldehyde and incubated at room temperature for 15 min. The fixative solution was discarded, and the cells were washed with PBS. Then, 150 μL of specialized blocking solution (containing 1% Triton-100) was added to each well for blocking at room temperature for 2 h, and the plate was washed with PBS to remove excess blocking solution. Anti-phistone H3 (pH3) was diluted at a ratio of 1:1000 with a blocking solution containing 0.033% Triton-100, and a blank control group was set up. Then, incubation was performed at 4° C. overnight. The next day, the plate was washed twice with 1×PBST. Anti-rabbit-IgG (H+L) (CST) and DRAQ5 (Thermofisher) were each diluted at an appropriate ratio with a blocking solution containing 0.033% Triton-100 (secondary antibody: 1:2000; DRAQ5: 1:10000). Then, incubation was performed at room temperature for 2 h. The plate was washed twice with 1×PBST and once with PBS. Fluorescence signals at 700 nm and 800 nm were detected using a Li—COR Odyssey two-color near-infrared laser imager. Calculation was performed as follows: pH3 expression (%)=(Cmpd dose/DMSO control)×100. Cmpd dose is the value of the drug treatment group, and DMSO control is the value of the DMSO control group. The EC50 values were determined by fitting using the GraphPad Prism 7.0 software.

[3] = tested on: HT-29 cells; test: Detection of cell proliferation activity by CCK8 method (HT-29); assay type: cell-based, human; conditions: Homo sapiens, CCK8, 96 h
Text: as §1
(§3) McCoy's 5A medium purchased from Sangon Biotech; CCK8 kit purchased from Beyotime; OVCAR3, HT-29, HCT-116, and BT-549 cells purchased from Shanghai Fuheng Biotechnology Co., Ltd.; multimode microplate reader (Thermo).
(§4) Cells at the logarithmic growth phase were taken, digested with a cell lysis buffer (trypsin), centrifuged, counted, and seeded into a 96-well plate at an appropriate cell density (BT549: 1500 cells/well in 1640 medium. HT-29 and HCT-116: 2000 cells/well in McCoy's 5A medium), with 180 μL per well, for a total of 60 wells. The surrounding wells were filled with an equal amount of PBS to prevent water evaporation from the edge wells. The next day after cell plating, the test compounds at different concentration gradients (with an initial final concentration of 10 μM, diluted in a 1:5 gradient to obtain 9 concentration gradients) were added to the wells. Three replicate wells were set up for each concentration point, and a corresponding DMSO negative control group was also set up. Detection: After 96 h of drug treatment, the test cell culture plate was removed from the incubator. All the liquid in the 96-well plate was aspirated, and 100 μL of medium containing 10% CCK8 solution was added to each well. The plate was then incubated at 37° C. for 2 h (the OD450 of the DMSO group reached 1.5 or more), and the absorbance at 450 nm was measured using a microplate reader
(§5) After the background value was subtracted from the measurement for each well, the inhibition rate was calculated. Inhibition Rate (%)=(1−Sample/Vehicle)×100. Sample is the luminescence value of the drug treatment group, and Vehicle is the luminescence value of the DMSO control group. A sigmoidal dose-survival rate curve was plotted using a non-linear regression model in the GraphPad Prism 7.0 software, and the IC50 values were calculated.

[4] = tested on: HCT-116 cells; test: Mitotic index analysis, pH3 expression in HCT-116 cells; assay type: cell-based; conditions: Homo sapiens, 24 h treatment
Description: as §2

[5] = tested on: HCT-116 cells; test: Detection of cell proliferation activity by CCK8 method (HCT-116); assay type: cell-based; conditions: Homo sapiens, CCK8, 96 h
Text: as §1, §3, §4, §5

[6] = tested on: BT-549 cells; test: Detection of cell proliferation activity by CCK8 method (BT-549); assay type: cell-based; conditions: Homo sapiens, CCK8, 96 h
Text: as §1, §3, §4, §5

[7] = tested on: OVCAR3 cells; test: Detection of cell proliferation activity by CCK8 method (OVCAR3); assay type: cell-based; conditions: Homo sapiens, OVCAR-3, CCK8, 96 h
Text: as §1, §3, §4, §5

[8] = Pharmacokinetic test in mice; assay type: in vivo; conditions: BALB/c mice; for AUC / Cmax / half-life: mouse, plasma; for half-life: read-out: t½ (converted)
Description: In this example, the pharmacokinetic behavior of the compounds after intravenous injection (IV) and intragastric (PO) administration in BALB/c mice was tested.
On the day of administration, mice were weighed for actual body weight and the administration volume was calculated. Each compound was tested in two groups with 9 mice in each group; one group was subjected to administration by single intravenous injection, and the other group of mice was subjected to single intragastric administration. Whole blood samples were collected via the orbit at prescribed time points (0.25 h, 0.5 h, 1 h, 2 h, 4 h, 8 h, and 24 h after administration). After blood sample collection, the samples were immediately transferred to labeled commercial sample tubes containing K2-EDTA (0.85-1.15 mg), followed by centrifugation (3200×g, 4° C., 10 min) and plasma collection. The plasma was transferred to a pre-cooled centrifuge tube, frozen in dry ice, and then stored in an ultra-low temperature freezer at −60° C. or lower until the LC-MS/MS analysis.
Plasma concentrations were determined by the LC-MS/MS method. Plasma drug concentration data for the compounds were processed using a non-compartmental model in the WinNonlin Version 6.3 (Pharsight, Mountain View, CA) pharmacokinetic software. The relevant pharmacokinetic parameters were calculated by a linear-log trapezoidal method.

SMILES | IC50 [1] | EC50 [2] | IC50 [3] | EC50 [4] | IC50 [5] | IC50 [6] | IC50 [7] | F ([8]; PO @30mpk) | AUC ([8]; 30 mg/kg, PO @30mpk) | Cmax ([8]; 30 mg/kg, PO @30mpk) | half-life ([8]; 30 mg/kg, PO @30mpk) | F ([8]; PO @5mpk) | AUC ([8]; 5 mg/kg, PO @5mpk) | Cmax ([8]; 5 mg/kg, PO @5mpk) | half-life ([8]; 5 mg/kg, PO @5mpk)
O=C(Nc1csc(C2CCC(F)(F)CC2)n1)c1ccc(NS(=O)(=O)CCO)cc1N1CCC2(CC1)CC2 [Compound 1] | 167 nM | – | – | – | – | – | – | – | – | – | – | – | – | – | –
O=C(Nc1nc(N2CCC(F)(F)CC2)nc2ccccc12)c1ccc(NS(=O)(=O)CCO)cc1N1CCC2(CC1)CC2 [Compound 2] | 5220 nM | – | – | – | – | – | – | – | – | – | – | – | – | – | –
Cc1cc(NC(=O)c2ccc(NS(=O)(=O)CCO)cc2N2CC3CC(C3)C2)nc(N2CCC(F)(F)CC2)n1 [Compound 4] | 186 nM | – | – | – | – | – | – | – | – | – | – | – | – | – | –
Cc1cc2nc(NC(=O)c3ccc(NS(=O)(=O)CCO)cc3N3CCC4(CC3)CC4)nc(N3CCC(F)(F)CC3)c2s1 [Compound 7] | 2010 nM | – | – | – | – | – | – | – | – | – | – | – | – | – | –
O=C(Nc1cc2ccccc2c(N2CCC(F)(F)CC2)n1)c1ccc(NS(=O)(=O)CCO)cc1N1CC2CCC(C2)C1 [Compound 9] | 122 nM | – | – | – | – | – | – | – | – | – | – | – | – | – | –
O=C(Nc1cc2nccn2c(N2CCC(F)(F)CC2)n1)c1ccc(NS(=O)(=O)CCO)cc1N1CCC2(CC1)CC2 [Compound 16] | 53 nM | 94 nM | 338 nM | > 10000 nM | > 10000 nM | 192 nM | – | – | – | – | – | – | – | – | –
O=C(Nc1cn2ccnc2c(N2CC3CCC(C3)C2)n1)c1ccc(NS(=O)(=O)CCO)cc1N1CCC2(CC1)CC2 [Compound 30] | 64.2 nM | 47.6 nM | 73.9 nM | > 10000 nM | > 10000 nM | 105 nM | 30.4 nM | – | – | – | – | – | – | – | –
O=C(Nc1cn2c(F)cnc2c(N2CCC(F)(F)CC2)n1)c1ccc(NS(=O)(=O)CCO)cc1N1CC2CCC(C2)C1 [Compound 51] | – | 13.7 nM | 35.7 nM | > 10000 nM | > 10000 nM | 54.7 nM | 26.1 nM | 67% | 272 µM·h | 14.2 µM | 62.3 h | – | – | – | –
CS(=O)(=O)Nc1ccc(C(=O)Nc2cn3ncnc3c(N3CCC(F)(F)CC3)n2)c(N2CC3CCC(C3)C2)c1 [Compound 53] | – | 26.7 nM | 44.7 nM | > 10000 nM | > 10000 nM | 170 nM | 32.8 nM | 16% | 78.3 µM·h | 4.56 µM | 13 h | – | – | – | –
Cn1ncc2cc(NC(=O)c3ccc(NS(=O)(=O)CCO)cc3N3CC4CCC(C4)C3)nc(N3CCC(F)(F)CC3)c21 [Compound 55] | – | 4.6 nM | 12.7 nM | > 10000 nM | > 10000 nM | 54.4 nM | 6.8 nM | 109% | 380 µM·h | 25.8 µM | 7.8 h | – | – | – | –
O=C(Nc1cc2nn[nH]c2c(N2CCC(F)(F)CC2)n1)c1ccc(NS(=O)(=O)CCO)cc1N1CC2CCC(C2)C1 [Compound 67] | – | 36.1 nM | 88.1 nM | > 10000 nM | > 10000 nM | 61.8 nM | 13.9 nM | – | – | – | – | – | – | – | –
CS(=O)(=O)Nc1ccc(C(=O)Nc2cc3nn[nH]c3c(N3CCC(F)(F)CC3)n2)c(N2CCC3(CC2)CC3)c1 [Compound 68] | – | 90.1 nM | 157 nM | > 10000 nM | > 10000 nM | 90.9 nM | 43.4 nM | – | – | – | – | – | – | – | –
O=C(Nc1cc2cn[nH]c2c(N2CCC(F)(F)CC2)n1)c1ccc(NS(=O)(=O)CCO)cc1N1CC2CCC(C2)C1 [Compound 71] | – | 7.8 nM | 17.4 nM | > 10000 nM | > 10000 nM | 39.7 nM | 5 nM | – | – | – | – | – | – | – | –
CS(=O)(=O)Nc1ccc(C(=O)Nc2cc3nccnc3c(N3CCC(F)(F)CC3)n2)c(N2CC3CCC(C3)C2)c1 [Compound 72] | – | 72.4 nM | 141 nM | > 10000 nM | > 10000 nM | 330 nM | 66.6 nM | – | – | – | – | 175% | 66.3 µM·h | 5.34 µM | 6 h
